Target: T1, human SGLT1 (Homo sapiens, UniProt P13866)
T1 construct: expressed in transfected cells; host or cells: CHO-K1
T1 sequence (P13866 1-664): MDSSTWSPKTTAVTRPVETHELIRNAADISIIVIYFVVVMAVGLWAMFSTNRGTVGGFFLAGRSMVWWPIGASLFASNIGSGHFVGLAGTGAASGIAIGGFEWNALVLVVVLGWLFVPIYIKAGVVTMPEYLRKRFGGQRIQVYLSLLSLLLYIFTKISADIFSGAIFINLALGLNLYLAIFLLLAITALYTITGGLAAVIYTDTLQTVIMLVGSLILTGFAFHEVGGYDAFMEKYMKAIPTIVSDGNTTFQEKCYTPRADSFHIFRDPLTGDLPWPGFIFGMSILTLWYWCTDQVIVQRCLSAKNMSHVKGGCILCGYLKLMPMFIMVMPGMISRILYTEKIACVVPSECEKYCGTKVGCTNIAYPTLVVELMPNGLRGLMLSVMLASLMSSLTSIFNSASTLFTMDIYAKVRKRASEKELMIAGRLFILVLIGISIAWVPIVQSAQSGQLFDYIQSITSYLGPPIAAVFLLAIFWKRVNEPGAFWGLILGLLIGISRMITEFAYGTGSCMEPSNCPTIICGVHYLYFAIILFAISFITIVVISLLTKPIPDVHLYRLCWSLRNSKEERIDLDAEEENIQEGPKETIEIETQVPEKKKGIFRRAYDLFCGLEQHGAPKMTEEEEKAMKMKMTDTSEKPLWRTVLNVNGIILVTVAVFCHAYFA
Assay: Inhibition test for sodium-dependent sugar uptake in CHO-K1 cells stably expressing human SGLT1
Format: cell-based
Details: [14C]methyl α-D-glucopyranoside uptake, 37° C., 30 minutes, read-out: IC50 for hSGLT1
Method: (1) Creation of CHO-K1 Cells Stably Expressing Human SGLT1
A plasmid vector expressing human SGLT1 protein was transfected into CHO-K1 cells using lipofectamine 2000 (Invitrogen). The cells were cultured in the presence of 500 μg/mL geneticin to select resistant strains, followed by screening in the system shown below using sugar uptake capacity as an indicator to obtain SGLT1-expressing cells.
(3) Inhibition Test for Sodium-Dependent Sugar Uptake in Stably Expressing Cells
The stably expressing cells prepared above were used in the following test.
Pretreatment buffer (140 mM choline chloride, 2 mM KCl, 1 mM CaCl2, 1 mM MgCl2, 10 mM HEPES/5 mM Tris, pH 7.4) was added in a volume of 200 μL to the cells stably expressing SGLT1 or 2 mL for Method A and 200 μL for Method B to the cells stably expressing SGLT2, followed by incubation for 20 minutes. The pretreatment buffer was removed and replaced by uptake buffer containing a test compound (1 mM methyl α-D-glucopyranoside (containing [^14C]methyl α-D-glucopyranoside), 140 mM NaCl, 2 mM KCl, 1 mM CaCl2, 1 mM MgCl2, 10 mM HEPES/5 mM Tris, pH 7.4) in a volume of 75 μL for SGLT1 and SGLT2 in Method B or 200 μL for SGLT2 in Method A. Uptake reaction was performed at 37° C. for 30 minutes (SGLT1) or 60 minutes (SGLT2). After the reaction, the cells were washed twice with washing buffer (10 mM methyl α-D-glucopyranoside, 140 mM choline chloride, 2 mM KCl, 1 mM CaCl2, 1 mM MgCl2, 10 mM HEPES/5 mM Tris, pH 7.4) in a volume of 200 μL for SGLT1 and SGLT2 in Method B or 2 mL for SGLT2 in Method A, and then dissolved in a 0.25 M NaOH solution (75 μL for SGLT1 and SGLT2 in Method B or 400 μL for SGLT2 in Method A). A liquid scintillator (Perkin Elmer) was added and mixed well with each sample, followed by measurement of radioactivity using a β-ray analyzer. For the control group, uptake buffer containing no test compound was prepared. Moreover, another uptake buffer containing choline chloride instead of NaCl was also prepared for basal uptake.
For determination of IC50 values, test compounds prepared at 6 appropriate concentrations were used and their concentrations required for 50% inhibition of the amount of sugar uptake (IC50 values) were calculated relative to the amount of sugar uptake in the control group (100%).

Row | SMILES | IC50 [nM]
1 | Cc1cc(/C=C/C(C)(C)C(=O)NC(C)(C)C(=O)NCC(C)(C)N)ccc1Cc1cc([C@@H]2O[C@H](CO)[C@@H](O)[C@H](O)[C@H]2O)c(O)cc1C(C)C [Example 6-2] | 27
2 | Cc1cc(/C=C/C(C)(C)C(=O)NC(C)(C)C(=O)NCCN(C)C)ccc1Cc1cc([C@@H]2O[C@H](CO)[C@@H](O)[C@H](O)[C@H]2O)c(O)cc1C(C)C [Example 1-2] | 35
3 | Cc1cc(/C=C/C(C)(C)C(=O)NC(C)(C)C(=O)N2CCC(N(C)C)CC2)ccc1Cc1cc([C@@H]2O[C@H](CO)[C@@H](O)[C@H](O)[C@H]2O)c(O)cc1C(C)C [Example 5-2] | 42

The remaining compounds from weak to strong by IC50, led by results:

Row | IC50 [nM] | SMILES
4 | 54 | COc1cc(C(C)C)c(Cc2ccc(/C=C/C(C)(C)C(=O)NC(C)(C)C(=O)NCC(C)(C)N)cc2C)cc1[C@@H]1O[C@H](CO)[C@@H](O)[C@H](O)[C@H]1O [Example 13-2]
5 | 29 | COc1cc(C(C)C)c(Cc2ccc(/C=C/C(C)(C)C(=O)NC(C)(C)C(=O)NCCN(C)C)cc2)cc1[C@@H]1O[C@H](CO)[C@@H](O)[C@H](O)[C@H]1O [Example 15-2]

From US8466113B2, “4-isopropylphenyl glucitol compounds as SGLT1 inhibitors” (Taisho Pharmaceutical Co., Ltd., priority 2009, dated 2013)
